Laboratory results taken from PubChem BioAssay AID248 (DTP/NCI, 2004).
Where “and” joins values, the source holds several entries; their conditions need not be identical. Equal entries are not always repeated. Toxic doses and inconclusive results are not listed. Rule as the data show it: active = T/C of 150% or more; inactive = T/C below 125%.

Tested on: L1210 leukemia ip in BDF1 mice, survival T/C
Test: NCI In Vivo Anticancer Drug Screen. Data for tumor model L1210 Leukemia (intraperitoneal) in B6D2F1 (BDF1) mice
Conditions: endpoint: mean survival time, higher = longer survival
Procedure, shortened: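 Tumor was transplanted into mice, which were then dosed with test compound or vehicle alone. Survival was recorded for each group, and the treated figure was expressed relative to the control figure.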

[1] = dose: 100.0 mg/kg/injection, schedule: Q01DX001 (ip), vehicle: saline
[2] = dose: 200.0 mg/kg/injection, schedule: Q01DX001 (ip), vehicle: saline
[3] = dose: 400.0 mg/kg/injection, schedule: Q01DX001 (ip), vehicle: saline
[4] = dose: 100.0 mg/kg/injection, schedule: Q01DX009 (ip), vehicle: saline with Tween-80
[5] = dose: 100.0 mg/kg/injection, schedule: Q04DX003 (ip), vehicle: saline with Tween-80
[6] = dose: 200.0 mg/kg/injection, schedule: Q01DX009 (ip), vehicle: saline with Tween-80
[7] = dose: 200.0 mg/kg/injection, schedule: Q04DX003 (ip), vehicle: saline with Tween-80
[8] = dose: 400.0 mg/kg/injection, schedule: Q04DX003 (ip), vehicle: saline with Tween-80
[9] = dose: 100.0 mg/kg/injection, schedule: Q04DX003 (ip), vehicle: Klucel (hydroxypropylcellulose) (HPC)
[10] = dose: 200.0 mg/kg/injection, schedule: Q04DX003 (ip), vehicle: Klucel (hydroxypropylcellulose) (HPC)
[11] = dose: 400.0 mg/kg/injection, schedule: Q04DX003 (ip), vehicle: Klucel (hydroxypropylcellulose) (HPC)
[12] = dose: 100.0 mg/kg/injection, schedule: Q01DX001 (ip), vehicle: carboxymethylcellulose (CMC)
[13] = dose: 200.0 mg/kg/injection, schedule: Q01DX001 (ip), vehicle: carboxymethylcellulose (CMC)
[14] = dose: 400.0 mg/kg/injection, schedule: Q01DX001 (ip), vehicle: carboxymethylcellulose (CMC)
[15] = dose: 75.0 mg/kg/injection, schedule: Q01DX001 (ip), vehicle: saline

Measured: T/C

O=C(Nc1ccc(I)cc1)c1cc([N+](=O)[O-])ccc1O
inactive: dose: 17.0 mg/kg/injection, schedule: Q02DX010 (ip), vehicle: carboxymethylcellulose (CMC) 99 % of control | dose: 34.0 mg/kg/injection, schedule: Q02DX010 (ip), vehicle: carboxymethylcellulose (CMC) 103 % of control | dose: 68.0 mg/kg/injection, schedule: Q02DX010 (ip), vehicle: carboxymethylcellulose (CMC) 97 % of control | dose: 136.0 mg/kg/injection, schedule: Q02DX010 (ip), vehicle: carboxymethylcellulose (CMC) 95 % of control | dose: 272.0 mg/kg/injection, schedule: Q02DX010 (ip), vehicle: carboxymethylcellulose (CMC) 98 % of control

CCOC(=O)NC(CCl)NC(=O)OCC
inactive: [1] 95 % of control | [2] 101 % of control | [3] 103 % of control

c1n[nH]c2c1CCCC2
inactive: dose: 100.0 mg/kg/injection, schedule: Q01DX001 (ip), vehicle: saline with Tween-80 89 % of control | [4] 98 % of control | dose: 100.0 mg/kg/injection, schedule: Q04DX002 (ip), vehicle: saline with Tween-80 97 % of control and 91 % of control | [5] 96 % of control and 104 % of control | dose: 200.0 mg/kg/injection, schedule: Q01DX001 (ip), vehicle: saline with Tween-80 86 % of control | [6] 98 % of control | dose: 200.0 mg/kg/injection, schedule: Q04DX002 (ip), vehicle: saline with Tween-80 94 % of control and 92 % of control | [7] 98 % of control and 108 % of control | dose: 400.0 mg/kg/injection, schedule: Q04DX002 (ip), vehicle: saline with Tween-80 94 % of control | [8] 100 % of control and 92 % of control

C=CCc1c[nH]c(=O)[nH]c1=O.[Hg]
inactive: dose: 12.5 mg/kg/injection, schedule: Q01DX009 (ip), vehicle: Klucel (hydroxypropylcellulose) (HPC) 93 % of control | dose: 25.0 mg/kg/injection, schedule: Q01DX009 (ip), vehicle: Klucel (hydroxypropylcellulose) (HPC) 98 % of control | dose: 25.0 mg/kg/injection, schedule: Q04DX003 (ip), vehicle: Klucel (hydroxypropylcellulose) (HPC) 92 % of control | dose: 50.0 mg/kg/injection, schedule: Q04DX003 (ip), vehicle: Klucel (hydroxypropylcellulose) (HPC) 89 % of control | [9] 97 % of control

CCN(CC)CCNCc1cc(Cl)c2cccnc2c1O
inactive: dose: 6.25 mg/kg/injection, schedule: Q04DX002 (ip), vehicle: saline 90 % of control | dose: 12.5 mg/kg/injection, schedule: Q04DX002 (ip), vehicle: saline 97 % of control | dose: 25.0 mg/kg/injection, schedule: Q04DX002 (ip), vehicle: saline 94 % of control

COC(CN)C(Cl)(Cl)Cl (centres undefined)
inactive: [1] 98 % of control | dose: 100.0 mg/kg/injection, schedule: Q04DX002 (ip), vehicle: saline 96 % of control and 89 % of control | dose: 100.0 mg/kg/injection, schedule: Q04DX003 (ip), vehicle: saline 98 % of control | [2] 107 % of control | dose: 200.0 mg/kg/injection, schedule: Q04DX002 (ip), vehicle: saline 94 % of control and 100 % of control | dose: 200.0 mg/kg/injection, schedule: Q04DX003 (ip), vehicle: saline 107 % of control | [3] 96 % of control | dose: 400.0 mg/kg/injection, schedule: Q04DX002 (ip), vehicle: saline 96 % of control and 100 % of control | dose: 400.0 mg/kg/injection, schedule: Q04DX003 (ip), vehicle: saline 106 % of control

CCOC(=O)CNC(=O)Oc1ccc(NC(C)=O)cc1
inactive: [4] 100 % of control | [6] 95 % of control | dose: 400.0 mg/kg/injection, schedule: Q01DX009 (ip), vehicle: saline with Tween-80 108 % of control

CCOC(=O)/C=C\CBr
inactive: dose: 4.0 mg/kg/injection, schedule: Q01DX015 (ip), vehicle: carboxymethylcellulose (CMC) 95 % of control | dose: 8.0 mg/kg/injection, schedule: Q01DX015 (ip), vehicle: carboxymethylcellulose (CMC) 93 % of control | dose: 16.0 mg/kg/injection, schedule: Q01DX015 (ip), vehicle: carboxymethylcellulose (CMC) 93 % of control | dose: 32.0 mg/kg/injection, schedule: Q01DX015 (ip), vehicle: carboxymethylcellulose (CMC) 101 % of control | [1] 104 % of control

CCSCCOC(=S)Nc1ccccc1
inactive: [9] 98 % of control | [10] 97 % of control | [11] 92 % of control

CN(C)C(=O)CCCc1ccc(N(CCCl)CCCl)cc1
inactive: dose: 4.0 mg/kg/injection, schedule: Q12HX018 (ip), vehicle: other 108 % of control | dose: 6.0 mg/kg/injection, schedule: Q12HX018 (ip), vehicle: other 97 % of control | dose: 8.0 mg/kg/injection, schedule: Q12HX018 (ip), vehicle: other 103 % of control | [12] 123 % of control | [13] 118 % of control | [14] 103 % of control

Cc1ccc(C2Nc3ccccc3S(=O)(=O)C2c2ccccc2)cc1 (centres undefined)
inactive: dose: 100.0 mg/kg/injection, schedule: Q01DX001 (ip), vehicle: Klucel (hydroxypropylcellulose) (HPC) 95 % of control | dose: 200.0 mg/kg/injection, schedule: Q01DX001 (ip), vehicle: Klucel (hydroxypropylcellulose) (HPC) 106 % of control | dose: 400.0 mg/kg/injection, schedule: Q01DX001 (ip), vehicle: Klucel (hydroxypropylcellulose) (HPC) 101 % of control

[O-][N+](=Nc1ccc(Cl)cc1)c1ccc(Cl)cc1
inactive: dose: 100.0 mg/kg/injection, schedule: Q01DX001 (ip), vehicle: gum acacia 92 % of control | dose: 100.0 mg/kg/injection, schedule: Q04DX003 (ip), vehicle: gum acacia 97 % of control | dose: 200.0 mg/kg/injection, schedule: Q01DX001 (ip), vehicle: gum acacia 93 % of control | dose: 200.0 mg/kg/injection, schedule: Q04DX003 (ip), vehicle: gum acacia 87 % of control | dose: 400.0 mg/kg/injection, schedule: Q01DX001 (ip), vehicle: gum acacia 92 % of control | dose: 400.0 mg/kg/injection, schedule: Q04DX003 (ip), vehicle: gum acacia 91 % of control

CC(=O)c1ccc(OCC(O)CN2CCN(c3ccccc3)CC2)c(C)c1 (centres undefined)
inactive: [5] 108 % of control | [7] 108 % of control | [8] 101 % of control

C/C=C/CC1(CC)C(=O)NC(=O)NC1=O
inactive: dose: 75.0 mg/kg/injection, schedule: Q01DX001 (ip), vehicle: other 98 % of control | [15] 93 % of control | dose: 150.0 mg/kg/injection, schedule: Q01DX001 (ip), vehicle: other 110 % of control | dose: 150.0 mg/kg/injection, schedule: Q01DX001 (ip), vehicle: saline 102 % of control | dose: 300.0 mg/kg/injection, schedule: Q01DX001 (ip), vehicle: other 96 % of control

COc1ccc(NC(=O)Nc2ccc(F)cc2)c(OC)c1
inactive: dose: 100.0 mg/kg/injection, schedule: Q01DX009 (ip), vehicle: Klucel (hydroxypropylcellulose) (HPC) 91 % of control | [9] 100 % of control | dose: 200.0 mg/kg/injection, schedule: Q01DX009 (ip), vehicle: Klucel (hydroxypropylcellulose) (HPC) 100 % of control | [10] 91 % of control | dose: 400.0 mg/kg/injection, schedule: Q01DX009 (ip), vehicle: Klucel (hydroxypropylcellulose) (HPC) 96 % of control | [11] 100 % of control

O=C(NCCCl)Nc1ncccn1
inactive: [12] 97 % of control | [13] 106 % of control | [14] 103 % of control

CCC1CCC(N)CC1 (centres undefined)
inactive: [15] 100 % of control
